According to patent publication US12016334B2, “Composition comprising sulphated galactose, and implementations thereof” (priority 2018, dated 2024):

Test system: Alternaria solani
Test: Detached tomato leaf antifungal assay
Type: in vivo
Details: for size of the fungus induced damage compared to untreated control: 80 mg/L spray

SMILES | fungal lesion size compared to untreated control (8 mg/L spray) | size of the fungus induced damage compared to untreated control
O=C[C@H](O)[C@@H](O)[C@@H](OS(=O)(=O)O)[C@H](O)CO [Gal-S, D-galactose-4-O-sulphate] | does not show significant reduction in the fungal lesion size | significant reduction in the size of the fungus induced damage
O=Cc1ccc(CO)o1 [HMF, Hydroxymethylfurfural] |  | significant reduction in the size of the fungus induced damage
